# Test results taken from ChEMBL document CHEMBL1146734, “Estrogen receptor ligands. Part 3: The SAR of dihydrobenzoxathiin SERMs” (Bioorg Med Chem Lett, 2004).
# Columns and labels:
# Estrogen receptor beta = Estrogen receptor beta (Homo sapiens, UniProt Q92731); assay: Binding affinity towards human estrogen receptor beta (ERbeta)
# Estrogen receptor [1] = target: T1, Estrogen receptor (Homo sapiens, UniProt P03372); assay: Binding affinity towards human estrogen receptor alpha
# T1 sequence (P03372 whole entry): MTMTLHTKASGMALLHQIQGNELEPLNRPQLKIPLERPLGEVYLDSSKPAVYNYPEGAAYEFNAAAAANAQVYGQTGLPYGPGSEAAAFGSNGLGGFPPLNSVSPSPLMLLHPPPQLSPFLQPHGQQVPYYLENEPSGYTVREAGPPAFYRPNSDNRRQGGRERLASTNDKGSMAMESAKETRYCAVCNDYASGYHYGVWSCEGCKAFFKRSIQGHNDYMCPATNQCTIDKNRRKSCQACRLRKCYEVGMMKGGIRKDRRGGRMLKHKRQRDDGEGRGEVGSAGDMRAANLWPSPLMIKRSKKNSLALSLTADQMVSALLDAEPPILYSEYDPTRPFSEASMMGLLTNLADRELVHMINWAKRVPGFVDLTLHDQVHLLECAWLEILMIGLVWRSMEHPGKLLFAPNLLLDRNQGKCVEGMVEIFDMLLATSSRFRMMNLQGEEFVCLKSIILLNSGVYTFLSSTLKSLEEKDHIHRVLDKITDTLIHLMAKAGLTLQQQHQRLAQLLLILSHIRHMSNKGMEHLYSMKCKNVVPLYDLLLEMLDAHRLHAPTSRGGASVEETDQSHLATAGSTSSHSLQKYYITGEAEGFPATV
# Estrogen receptor [2] = target: T2, Estrogen receptor (Homo sapiens, UniProt Q92731+P03372); assay: […] inhibition of human ERalpha/ERbeta co-expressed in HEK 293 cells; 127/3316; format: functional; details: hek293
# Estrogen receptor [3] = target: T2, Estrogen receptor; assay: In vivo inhibition of human ERalpha/ERbeta co-expressed in HEK 293 cells; format: functional; details: hek293
# Estrogen receptor [4] = target: T2, Estrogen receptor; assay: […] inhibition of human ERalpha/ERbeta co-expressed in HEK 293 cells; 21/840; format: functional; details: hek293
# Estrogen receptor [5] = target: T2, Estrogen receptor; assay: […] inhibition of human ERalpha/ERbeta co-expressed in HEK 293 cells; 137/1375; format: functional; details: hek293
# Estrogen receptor [6] = target: T2, Estrogen receptor; assay: In vitro inhibition of human ERalpha/ERbeta expressed in HEK 293 cells; 76/322; details: hek293
# Estrogen receptor beta, sequence (Q92731 whole entry): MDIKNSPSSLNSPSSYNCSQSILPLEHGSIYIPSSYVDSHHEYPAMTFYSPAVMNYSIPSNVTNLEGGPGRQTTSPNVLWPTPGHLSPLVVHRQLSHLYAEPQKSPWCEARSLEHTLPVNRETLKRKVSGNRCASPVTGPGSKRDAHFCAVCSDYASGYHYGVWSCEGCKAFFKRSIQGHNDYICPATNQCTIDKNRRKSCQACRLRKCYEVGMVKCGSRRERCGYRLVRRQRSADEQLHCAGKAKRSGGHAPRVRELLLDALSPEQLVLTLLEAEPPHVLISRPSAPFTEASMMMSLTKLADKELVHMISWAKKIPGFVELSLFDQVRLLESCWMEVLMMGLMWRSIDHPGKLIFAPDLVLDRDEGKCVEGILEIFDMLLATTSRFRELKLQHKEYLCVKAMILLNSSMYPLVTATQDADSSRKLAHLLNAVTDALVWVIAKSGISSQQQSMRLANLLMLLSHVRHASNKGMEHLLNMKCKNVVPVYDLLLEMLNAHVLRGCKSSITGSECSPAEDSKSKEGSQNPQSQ
Structure (SMILES),IC50 (Estrogen receptor beta) [nM],IC50 (Estrogen receptor [1]) [nM],also measured
CC(C)[C@H]1Sc2cc(O)ccc2O[C@H]1c1ccc(OCCN2CCCCC2)cc1,105,7,IC50 (Estrogen receptor [2]): 127 nM
Oc1ccc(C[C@H]2Sc3cc(O)ccc3O[C@H]2c2ccc(OCCN3CCCCC3)cc2)cc1,308,2.7,IC50 (Estrogen receptor [3]): 14 nM
Oc1ccc2c(c1)S[C@H](CC1CCCC1)[C@H](c1ccc(OCCN3CCCCC3)cc1)O2,34,3,
Oc1ccc2c(c1)S[C@H](c1ccco1)[C@H](c1ccc(OCCN3CCCCC3)cc1)O2,361,35,
Oc1ccc2c(c1)S[C@H](C1CCCCCC1)[C@H](c1ccc(OCCN3CCCCC3)cc1)O2,28,7.5,IC50 (Estrogen receptor [4]): 21 nM
CC(C)(C)[C@H]1Sc2cc(O)ccc2O[C@H]1c1ccc(OCCN2CCCCC2)cc1,43,11,IC50 (Estrogen receptor [5]): 137 nM
Oc1ccc2c(c1)S[C@H](C1CCCC1)[C@H](c1ccc(OCCN3CCCCC3)cc1)O2,31,2.5,
Oc1ccc2c(c1)S[C@H](c1cccnc1)[C@H](c1ccc(OCCN3CCCCC3)cc1)O2,8250,542,
Oc1ccc2c(c1)S[C@H](c1ccncc1)[C@H](c1ccc(OCCN3CCCCC3)cc1)O2,8200,490,
Oc1ccc2c(c1)S[C@H](c1cccs1)[C@H](c1ccc(OCCN3CCCCC3)cc1)O2,162,8.8,
Oc1ccc2c(c1)S[C@H](C1CCCCC1)[C@H](c1ccc(OCCN3CCCCC3)cc1)O2,16,2.6,
Oc1ccc2c(c1)S[C@H](Cc1ccccc1)[C@H](c1ccc(OCCN3CCCCC3)cc1)O2,60,7.4,IC50 (Estrogen receptor [3]): 61 nM
CC(C)C[C@H]1Sc2cc(O)ccc2O[C@H]1c1ccc(OCCN2CCCCC2)cc1,38,3,IC50 (Estrogen receptor [6]): 76 nM
Oc1ccc2c(c1)S[C@H](CC1CCCCC1)[C@H](c1ccc(OCCN3CCCCC3)cc1)O2,40,3.9,
